Drawing on patent US10774064B2 (Cadent Therapeutics, Inc., priority 2016, dated 2020), this text covers SC100 for 30 molecules.

For this assay, the target named is T1, small-conductance Ca2+-activated K+ channels (SK channels, subtype 2) (Homo sapiens, UniProt Q9H2S1).
T1 construct: expressed in transfected cells; host or cells: HEK293
Put plainly: whole-cell patch-clamp of ionic current through SK2 channels in HEK293 cells (SC100). It counts as cell-based. The note with it: concentration that increases the basal current by 100%; HEK293 cells expressing SK2 channels. In short, it runs like this: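 Whole-cell patch-clamp recording of current in HEK293 cells expressing SK2 channels. SC100 is the compound concentration that increases basal current by 100%.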

In the case of `Cc1cc(C)n(-c2cc(OCc3ncn(C)n3)cc(NC3CCC(F)(F)CC3)n2)n1` [Compound 275, N-(4,4-difluorocyclohexyl)-6-(3,5-dimethyl-1h-pyrazol-1-yl)-4-((1-methyl-1H-1,2,4-triazol-3-yl)methoxy)pyridin-2-amine], the SC100 result is given as “+ (+ means >1 uM)”.
Under `Cc1cc(C)n(-c2cc(O)cc(NC3CCC(F)(F)CC3)n2)n1` [Compound 276, 2-((4,4-difluorocyclohexyl)amino)-6-(3,5-dimethyl-1H-pyrazol-1-yl)pyridin-4-ol] stands “+ (+ means >1 uM)”; under `Cc1cc(NC2CCC(F)(F)CC2)nc(-c2nc(C(F)F)cs2)n1` [Compound 277, N-(4,4-difluorocyclohexyl)-2-(4-(difluoromethyl)thiazol-2-yl)-6-methylpyrimidin-4-amine], “++ (++ means 200 nM-1000 nM)”; under `Cc1cc(NC2CCC(F)(F)CC2)nc(-c2nc(C(C)C)cs2)n1` [Compound 278, N-(4,4-difluorocyclohexyl)-2-(4-isopropylthiazol-2-yl)-6-methylpyrimidin-4-amine], “++ (++ means 200 nM-1000 nM)”.
Consider `CCc1csc(-c2nc(C)cc(NC3CCC(F)(F)CC3)n2)n1` [Compound 279, N-(4,4-difluorocyclohexyl)-2-(4-ethylthiazol-2-yl)-6-methylpyrimidin-4-amine], for which the SC100 result was “++ (++ means 200 nM-1000 nM)”.
Under `FCc1ccn(-c2nc(NC3CCC(F)(F)CC3)cc(N3CCOCC3)n2)n1` [Compound 280, N-(4,4-difluorocyclohexyl)-2-(3-(fluoromethyl)-1H-pyrazol-1-yl)-6-morpholinopyrimidin-4-amine] stands “+ (+ means >1 uM)”; under `Cc1cn(-c2nc(NC3CCC(F)(F)CC3)cc(N3CCOCC3)n2)nc1CF` [Compound 281, N-(4,4-difluorocyclohexyl)-2-(3-(fluoromethyl)-4-methyl-1H-pyrazol-1-yl)-6-morpholinopyrimidin-4-amine], “++ (++ means 200 nM-1000 nM)”; under `Cc1cn(-c2nc(NC3CCC(F)(F)CC3)cc(N3CCOCC3)n2)nc1C(F)F` [Compound 282, N-(4,4-difluorocyclohexyl)-2-(3-(difluoromethyl)-4-methyl-1H-pyrazol-1-yl)-6-morpholinopyrimidin-4-amine], “+ (+ means >1 uM)”.
Under `FCc1ccn(-c2nc(NC3CCC(F)(F)CC3)cc(N3CCSCC3)n2)n1` [Compound 284, N-(4,4-difluorocyclohexyl)-2-(3-(fluoromethyl)-1H-pyrazol-1-yl)-6-thiomorpholinopyrimidin-4-amine] stands “++ (++ means 200 nM-1000 nM)”; under `FCc1ccn(-c2nc(NC3CCC(F)(F)CC3)cc(OC3COC3)n2)n1` [Compound 285, N-(4,4-difluorocyclohexyl)-2-(3-(fluoromethyl)-1H-pyrazol-1-yl)-6-(oxetan-3-yloxy)pyrimidin-4-amine], “+ (+ means >1 uM)”; under `Cn1cnc2c(NC3CCC(F)(F)CC3)nc(-n3ccc(CF)n3)cc21` [Compound 286, N-(4,4-difluorocyclohexyl)-6-(3-(fluoromethyl)-1H-pyrazol-1-yl)-1-methyl-1H-imidazo[4,5-c]pyridin-4-amine], “+++ (+++ means <200 nM)”.
In the case of `CCOC(=O)N1CC(Oc2cc(NC3CCC(F)(F)CC3)nc(-n3ccc(CF)n3)n2)C1` [Compound 287, ethyl 3-((6-((4,4-difluorocyclohexyl)amino)-2-(3-(fluoromethyl)-1H-pyrazol-1-yl)pyrimidin-4-yl)oxy)azetidine-1-carboxylate], the SC100 result is reported as “++ (++ means 200 nM-1000 nM)”.
With `CCC(=O)N1CC(Oc2cc(NC3CCC(F)(F)CC3)nc(-n3ccc(CF)n3)n2)C1` [Compound 288, 1-(3-((6-((4,4-difluorocyclohexyl)amino)-2-(3-(fluoromethyl)-1H-pyrazol-1-yl)pyrimidin-4-yl)oxy)azetidin-1-yl)propan-1-one], the SC100 result is recorded as “++ (++ means 200 nM-1000 nM)”.
Under `CC(=O)N1CC(Oc2cc(NC3CCC(F)(F)CC3)nc(-n3ccc(CF)n3)n2)C1` [Compound 289, 1-(3-((6-((4,4-difluorocyclohexyl)amino)-2-(3-(fluoromethyl)-1H-pyrazol-1-yl)pyrimidin-4-yl)oxy)azetidin-1-yl)ethan-1-one] stands “++ (++ means 200 nM-1000 nM)”; under `CC(C)C(=O)N1CC(Oc2cc(NC3CCC(F)(F)CC3)nc(-n3ccc(CF)n3)n2)C1` [Compound 290, 1-(3-((6-((4,4-difluorocyclohexyl)amino)-2-(3-(fluoromethyl)-1H-pyrazol-1-yl)pyrimidin-4-yl)oxy)azetidin-1-yl)-2-methylpropan-1-one], “++ (++ means 200 nM-1000 nM)”; under `COC(=O)N1CC(Oc2cc(NC3CCC(F)(F)CC3)nc(-n3ccc(CF)n3)n2)C1` [Compound 291, methyl 3-((6-((4,4-difluorocyclohexyl)amino)-2-(3-(fluoromethyl)-1H-pyrazol-1-yl)pyrimidin-4-yl)oxy)azetidine-1-carboxylate], “++ (++ means 200 nM-1000 nM)”.
Under `CC(C)(C)C(=O)N1CC(Oc2cc(NC3CCC(F)(F)CC3)nc(-n3ccc(CF)n3)n2)C1` [Compound 293, 1-(3-((6-((4,4-difluorocyclohexyl)amino)-2-(3-(fluoromethyl)-1H-pyrazol-1-yl)pyrimidin-4-yl)oxy)azetidin-1-yl)-2,2-dimethylpropan-1-one] stands “++ (++ means 200 nM-1000 nM)”.
For the molecule `CC1CN(c2cc(NC3CCC(F)(F)CC3)nc(-n3ccc(CF)n3)n2)CC(C)O1` (stereo not drawn) [Compound 294, N-(4,4-difluorocyclohexyl)-6-(2,6-dimethylmorpholino)-2-(3-(fluoromethyl)-1H-pyrazol-1-yl)pyrimidin-4-amine], the SC100 entry is “++ (++ means 200 nM-1000 nM)”.
Under `COC(=O)N1CC(Oc2cc(NC3CCC(F)(F)CC3)nc(-n3ccc(C(F)F)n3)n2)C1` [Compound 295, methyl 3-((6-((4,4-difluorocyclohexyl)amino)-2-(3-(difluoromethyl)-1H-pyrazol-1-yl)pyrimidin-4-yl)oxy)azetidine-1-carboxylate] stands “++ (++ means 200 nM-1000 nM)”; under `CC(C)OC(=O)N1CC(Oc2cc(NC3CCC(F)(F)CC3)nc(-n3ccc(CF)n3)n2)C1` [Compound 296, isopropyl3-((6-((4,4-difluorocyclohexyl)amino)-2-(3-(fluoromethyl)-1H-pyrazol-1-yl)pyrimidin-4-yl)oxy)azetidine-1-carboxylate], “++ (++ means 200 nM-1000 nM)”; under `COC(=O)N1CCC(Oc2cc(NC3CCC(F)(F)CC3)nc(-n3ccc(CF)n3)n2)C1` (stereo not drawn) [Compound 297, methyl 3-((6-((4,4-difluorocyclohexyl)amino)-2-(3-(fluoromethyl)-1H-pyrazol-1-yl)pyrimidin-4-yl)oxy)pyrrolidine-1-carboxylate], “++ (++ means 200 nM-1000 nM)”.
Under `CC(C)(C)C(=O)N1CC(Oc2cc(NC3CCC(F)(F)CC3)nc(-n3ccc(C(F)F)n3)n2)C1` [Compound 298, 1-(3-((6-((4,4-difluorocyclohexyl)amino)-2-(3-(difluoromethyl)-1H-pyrazol-1-yl)pyrimidin-4-yl)oxy)azetidin-1-yl)-2,2-dimethylpropan-1-one] stands “++ (++ means 200 nM-1000 nM)”; under `O=C(N1CC(Oc2cc(NC3CCC(F)(F)CC3)nc(-n3ccc(C(F)F)n3)n2)C1)C(F)(F)F` [Compound 299, 1-(3-((6-((4,4-difluorocyclohexyl)amino)-2-(3-(difluoromethyl)-1H-pyrazol-1-yl)pyrimidin-4-yl)oxy)azetidin-1-yl)-2,2,2-trifluoroethan-1-one], “++ (++ means 200 nM-1000 nM)”.
Under `Cc1cc(C)n(Cc2cc(NC3CCC(F)(F)CC3)nc(-n3ccc(CF)n3)n2)n1` [Compound 300, N-(4,4-difluorocyclohexyl)-6-((3,5-dimethyl-1H-pyrazol-1-yl)methyl)-2-(3-(fluoromethyl)-1H-pyrazol-1-yl)pyrimidin-4-amine] stands “+ (+ means >1 uM)”.
Consider `CC(=O)NCc1cc(NC2CCC(F)(F)CC2)nc(-n2ccc(C(F)F)n2)c1` [Compound 301, N-((2-((4,4-difluorocyclohexyl)amino)-6-(3-(difluoromethyl)-1H-pyrazol-1-yl)pyridin-4-yl)methyl)acetamide], for which the SC100 entry is recorded as “++ (++ means 200 nM-1000 nM)”.
`FCc1ccn(-c2cc(OC3COC3)cc(NC3CCC(F)(F)CC3)n2)n1` [Compound 302, N-(4,4-difluorocyclohexyl)-6-(3-(fluoromethyl)-1H-pyrazol-1-yl)-4-(oxetan-3-yloxy)pyridin-2-amine]: the SC100 entry is “++ (++ means 200 nM-1000 nM)”.
Then `Cc1cn(-c2nc(NC3CCC(F)(F)CC3)cc(OC3COC3)n2)nc1CF` [Compound 304, N-(4,4-difluorocyclohexyl)-2-(3-(fluoromethyl)-4-methyl-1H-pyrazol-1-yl)-6-(oxetan-3-yloxy)pyrimidin-4-amine], with “++ (++ means 200 nM-1000 nM)”.
Consider `COC(=O)N1CCC(Oc2cc(NC3CCC(F)(F)CC3)nc(-n3ccc(C(F)F)n3)n2)C1` (stereo not drawn) [Compound 305, methyl 3-((6-((4,4-difluorocyclohexyl)amino)-2-(3-(difluoromethyl)-1H-pyrazol-1-yl)pyrimidin-4-yl)oxy)pyrrolidine-1-carboxylate], for which the SC100 result is on record as “++ (++ means 200 nM-1000 nM)”.
With `COC(=O)N1CCC1COc1cc(NC2CCC(F)(F)CC2)nc(-n2ccc(CF)n2)n1` (stereo not drawn) [Compound 306, methyl 2-(((6-((4,4-difluorocyclohexyl)amino)-2-(3-(fluoromethyl)-1H-pyrazol-1-yl)pyrimidin-4-yl)oxy)methyl)azetidine-1-carboxylate], the SC100 entry is “+ (+ means >1 uM)”.
Then `COC(=O)N1CC(Oc2cc(NC3CCC(F)(F)CC3)nc(-n3ccc(C(C)O)n3)n2)C1` (stereo not drawn) [Compound 307, methyl 3-((6-((4,4-difluorocyclohexyl)amino)-2-(3-(1-hydroxyethyl)-1H-pyrazol-1-yl)pyrimidin-4-yl)oxy)azetidine-1-carboxylate], with “+ (+ means >1 uM)”.
